In US20180140578A1, “METHODS AND COMPOSITIONS FOR THE DIAGNOSIS AND SELECTIVE TREATMENT OF CANCER” (Board of Regents of the University of Texas System, priority 2016, published 2018):
Where two headings read alike, the source gives them in different places.

How the values were obtained:
Assay in all cases: IC50 assay, NSCLC cell lines (Cell Titer Glo, total ATP)
Format in all cases: cell-based
H2170 = conditions: Homo sapiens
Procedure: (§1) Cells were plated at ˜15% confluence in a media comprising 5% concentration of fetal bovine serum supplemented with RPMI, which included 2 mM L-Glutamine in a 96 well dish. […] Following three days of incubation in a 5% CO2 incubator, the total ATP in each well was quantified using Cell Titer Glo (Promega). […] The solid lines represent the medians.

H2122 = conditions: Homo sapiens
Procedure: as §1

A549 = conditions: Homo sapiens
Procedure: as §1

H460 = conditions: Homo sapiens, NCI-H460, read-out: Indisulam IC50 (log 10) (converted), U2AF1 WT
Procedure: as §1

H2106 = conditions: Homo sapiens
Procedure: as §1

HCC4017 = conditions: Homo sapiens
Procedure: as §1

H1437 = conditions: Homo sapiens
Procedure: as §1

H1395 = conditions: Homo sapiens
Procedure: as §1

H838 = conditions: Homo sapiens
Procedure: as §1

H2882 = conditions: Homo sapiens
Procedure: as §1

HCC2814 = conditions: Homo sapiens
Procedure: as §1

H2250 = conditions: Homo sapiens
Procedure: as §1

H1568 = conditions: Homo sapiens
Procedure: as §1

H1703 = conditions: Homo sapiens
Procedure: as §1

H157 = conditions: Homo sapiens
Procedure: as §1

H1755 = conditions: Homo sapiens
Procedure: as §1

H2887 = conditions: Homo sapiens
Procedure: as §1

H2228 = conditions: Homo sapiens
Procedure: as §1

A427 = conditions: Homo sapiens
Procedure: as §1

H2444 = conditions: Homo sapiens
Procedure: as §1

H2342 = conditions: Homo sapiens
Procedure: as §1

H1373 = conditions: Homo sapiens
Procedure: as §1

H358 = conditions: Homo sapiens
Procedure: as §1

H2009 = conditions: Homo sapiens
Procedure: as §1

H292 = conditions: Homo sapiens
Procedure: as §1

H522 = conditions: Homo sapiens
Procedure: as §1

H3122 = conditions: Homo sapiens
Procedure: as §1

[1] = read-out: Indisulam IC50 (log 10) (converted), U2AF1 WT
[2] = read-out: Indisulam IC50, U2AF1 WT

**Q.** `NS(=O)(=O)c1ccc(S(=O)(=O)Nc2cccc3c(Cl)c[nH]c23)cc1` [Indisulam, indisulam] was tested. Which IC50 (H2170; NCI-H2170, read-out: Indisulam IC50 (log 10) (converted), U2AF1 WT) did it give?
**A.** 29.6 µM

**Q.** What about the IC50 (H2170; NCI-H2170, read-out: Indisulam IC50, U2AF1 WT) of the same compound?
**A.** 29.6 µM

**Q.** What about the IC50 (H2122; NCI-H2122, read-out: Indisulam IC50 (log 10) (converted), U2AF1 WT) of the same compound?
**A.** 18.8 µM

**Q.** What about the IC50 (H2122; NCI-H2122, read-out: Indisulam IC50, U2AF1 WT) of the same compound?
**A.** 18.8 µM

**Q.** And the IC50 (A549; [1])?
**A.** 46.6 µM

**Q.** And the IC50 (A549; [2])?
**A.** 46.6 µM

**Q.** And the IC50 (H460)?
**A.** ≥ 500 µM

**Q.** What about the IC50 (H2106; [1]) of the same compound?
**A.** 0.616 µM

**Q.** And the IC50 (H2106; [2])?
**A.** 0.616 µM

**Q.** And the IC50 (HCC4017; [1])?
**A.** 12.6 µM

**Q.** And the IC50 (HCC4017; [2])?
**A.** 12.6 µM

**Q.** What about the IC50 (H1437; NCI-H1437, read-out: Indisulam IC50 (log 10) (converted), U2AF1 WT) of the same compound?
**A.** 14 µM

**Q.** What about the IC50 (H1437; NCI-H1437, read-out: Indisulam IC50, U2AF1 WT) of the same compound?
**A.** 14 µM

**Q.** And the IC50 (H1395; NCI-H1395, read-out: Indisulam IC50 (log 10) (converted), U2AF1 WT)?
**A.** 10.9 µM

**Q.** And the IC50 (H1395; NCI-H1395, read-out: Indisulam IC50, U2AF1 WT)?
**A.** 10.9 µM

**Q.** And the IC50 (H838; NCI-H838, read-out: Indisulam IC50 (log 10) (converted), U2AF1 WT)?
**A.** 1.03 µM

**Q.** And the IC50 (H838; NCI-H838, read-out: Indisulam IC50, U2AF1 WT)?
**A.** 1.03 µM

**Q.** What about the IC50 (H2882; NCI-H2882, read-out: Indisulam IC50 (log 10) (converted), U2AF1 WT) of the same compound?
**A.** 12.2 µM

**Q.** What about the IC50 (H2882; NCI-H2882, read-out: Indisulam IC50, U2AF1 WT) of the same compound?
**A.** 12.2 µM

**Q.** What about the IC50 (HCC2814; [1]) of the same compound?
**A.** 8.72 µM

**Q.** What about the IC50 (HCC2814; [2]) of the same compound?
**A.** 8.72 µM

**Q.** And the IC50 (H2250; [1])?
**A.** ≥ 500 µM

**Q.** What about the IC50 (H2250; [2]) of the same compound?
**A.** 1180 µM

**Q.** And the IC50 (H1568; NCI-H1568, read-out: Indisulam IC50 (log 10) (converted), U2AF1 WT)?
**A.** 265 µM

**Q.** What about the IC50 (H1568; NCI-H1568, read-out: Indisulam IC50, U2AF1 WT) of the same compound?
**A.** 265 µM

**Q.** What about the IC50 (H1703; NCI-H1703, read-out: Indisulam IC50 (log 10) (converted), U2AF1 WT) of the same compound?
**A.** 3.33 µM

**Q.** What about the IC50 (H1703; NCI-H1703, read-out: Indisulam IC50, U2AF1 WT) of the same compound?
**A.** 3.33 µM

**Q.** What about the IC50 (H157; NCI-H157, read-out: Indisulam IC50 (log 10) (converted), U2AF1 WT) of the same compound?
**A.** 140 µM

**Q.** What about the IC50 (H157; NCI-H157, read-out: Indisulam IC50, U2AF1 WT) of the same compound?
**A.** 140 µM

**Q.** And the IC50 (H1755; NCI-H1755, read-out: Indisulam IC50 (log 10) (converted), U2AF1 WT)?
**A.** 252 µM

**Q.** What about the IC50 (H1755; NCI-H1755, read-out: Indisulam IC50, U2AF1 WT) of the same compound?
**A.** 252 µM

**Q.** What about the IC50 (H2887; NCI-H2887, read-out: Indisulam IC50 (log 10) (converted), U2AF1 WT) of the same compound?
**A.** 9.63 µM

**Q.** And the IC50 (H2887; NCI-H2887, read-out: Indisulam IC50, U2AF1 WT)?
**A.** 9.63 µM

**Q.** What about the IC50 (H2228; NCI-H2228, read-out: Indisulam IC50 (log 10) (converted), U2AF1 WT) of the same compound?
**A.** 1.26 µM

**Q.** And the IC50 (H2228; NCI-H2228, read-out: Indisulam IC50, U2AF1 WT)?
**A.** 1.26 µM

**Q.** And the IC50 (A427; A-427, read-out: Indisulam IC50 (log 10) (converted), U2AF1 WT)?
**A.** 13.9 µM

**Q.** What about the IC50 (A427; A-427, read-out: Indisulam IC50, U2AF1 WT) of the same compound?
**A.** 13.9 µM

**Q.** What about the IC50 (H2444; NCI-H2444, read-out: Indisulam IC50 (log 10) (converted), U2AF1 WT) of the same compound?
**A.** 14.1 µM

**Q.** What about the IC50 (H2444; NCI-H2444, read-out: Indisulam IC50, U2AF1 WT) of the same compound?
**A.** 14.1 µM

**Q.** And the IC50 (H2342; NCI-H2342, read-out: Indisulam IC50 (log 10) (converted), U2AF1 WT)?
**A.** 58.6 µM

**Q.** What about the IC50 (H2342; NCI-H2342, read-out: Indisulam IC50, U2AF1 WT) of the same compound?
**A.** 58.6 µM

**Q.** What about the IC50 (H1373; NCI-H1373, read-out: Indisulam IC50 (log 10) (converted), U2AF1 S34F) of the same compound?
**A.** 0.23 µM

**Q.** And the IC50 (H1373; NCI-H1373, read-out: Indisulam IC50, U2AF1 S34F)?
**A.** 0.23 µM

**Q.** And the IC50 (H358; NCI-H358, read-out: Indisulam IC50 (log 10) (converted), U2AF1 WT)?
**A.** ≥ 500 µM

**Q.** What about the IC50 (H358; NCI-H358, read-out: Indisulam IC50, U2AF1 WT) of the same compound?
**A.** 2840 µM

**Q.** And the IC50 (H2009; NCI-H2009, read-out: Indisulam IC50 (log 10) (converted), U2AF1 WT)?
**A.** 17.4 µM

**Q.** And the IC50 (H2009; NCI-H2009, read-out: Indisulam IC50, U2AF1 WT)?
**A.** 17.4 µM

**Q.** What about the IC50 (H292; NCI-H292, read-out: Indisulam IC50 (log 10) (converted), U2AF1 WT) of the same compound?
**A.** 1.12 µM

**Q.** What about the IC50 (H292; NCI-H292, read-out: Indisulam IC50, U2AF1 WT) of the same compound?
**A.** 1.12 µM

**Q.** And the IC50 (H522; NCI-H522, read-out: Indisulam IC50 (log 10) (converted), U2AF1 WT)?
**A.** 1.22 µM

**Q.** And the IC50 (H522; NCI-H522, read-out: Indisulam IC50, U2AF1 WT)?
**A.** 1.22 µM

**Q.** What about the IC50 (H3122; NCI-H3122, read-out: Indisulam IC50 (log 10) (converted), U2AF1 WT) of the same compound?
**A.** 70.1 µM

**Q.** What about the IC50 (H3122; NCI-H3122, read-out: Indisulam IC50, U2AF1 WT) of the same compound?
**A.** 70.1 µM
